Reference: patent US20120046321A1, “METHODS OF TREATING ATRIAL FIBRILLATION WITH P38 INHIBITOR COMPOUNDS” (INTERMUNE, INC., priority 2005, published 2012)

System: canines with ventricular tachypacing (VTP)-induced congestive heart failure (CHF)
Test: Echocardiographic monitoring of the VTP-induced CHF model (LV function, LA area, CHF signs)
Type: in vivo, canine
Details: oral PFD 800 mg three times a day
Source text: Briefly, 15 adult mongrel canines (weight 20 to 32 kgs) were divided into 3 groups (n=5 in each group) as follows: Group 1: Normal; Group 2: CHF canines not treated with PFD (or CHF); and Group 3: CHF canines treated with PFD (or CHF+PFD). […] The CHF and CHF+PFD canines underwent placement of a permanent single-chamber pacemaker with the pacing lead positioned in the right ventricular apex followed by radiofrequency catheter ablation of the AV junction to create complete heart block. Canines in the CHF and CHF+PFD groups underwent 3 weeks of VTP at a rate of 220 bpm. Oral PFD (800 mg three times a day) (InterMune, Brisbane, Calif.) was started 2 days prior to the initiation of VTP and was given for the full duration of the pacing period. The CHF and CHF+PFD groups underwent transesophageal echocardiography at the time of pacemaker implantation and at follow-up. Canines in the paced groups underwent weekly transthoracic echocardiography, weekly ECG monitoring to ensure right ventricular capture, and weekly physical examinations. CHF was established by clinical signs, such as, lethargy, peripheral edema, and mucous membrane color changes. Left atrial (LA) size was determined by measuring the LA area by planimetry from 2-D echocardiographic images during diastole from the 2-chamber views. Left ventricular (LV) systolic function was determined by measuring LV fractional shortening at the level of the papillary muscle. Two repeated measurements were made for LA area and LV fractional shortening and the mean value was used for analyses.

For `Cc1ccc(=O)n(-c2ccccc2)c1` [PFD, 5-methyl-1-phenyl-2-(1H)-pyridone], the “LV fractional shortening after 3 weeks of VTP compared with baseline” value (CHF+PFD group, p<0.001 vs baseline) was −69±8%, the “CHF signs, CHF vs CHF+PFD” value (3 weeks VTP) was “did not appear to be different” and the “Increase in LA area from baseline at each weekly time point, CHF vs CHF+PFD” value (3 weeks VTP) was “similar”. For the same compound, the “Inter-group baseline and weekly LV fractional shortening, CHF vs CHF+PFD” value (3 weeks VTP) was “similar”.
